# Test results taken from article PMC11013284, “Chemoselective Synthesis and Anti-Kinetoplastidal Properties of 2,6-Diaryl-4H-tetrahydro-thiopyran-4-one S-Oxides: Their Interplay in a Cascade of Redox Reactions from Diarylideneacetones” (Molecules, 2024).
# Like-named read-outs stand apart in the source and are kept apart here.
# How the values were obtained:
# [1] = system: WT LV9 L. donovani promastigotes; test: L. donovani promastigote assay (MTT), wild type; assay type: cell-based; conditions: Leishmania donovani, 72 h, 3 days; read-out: IC50 ± SD WT LV9 L. donovani promastigotes
# Experimental: (§1) L. donovani promastigote forms from the logarithmic phase culture were suspended to yield 10^6 cells/mL. Miltefosine was used as the antileishmanial reference compound. Compounds to be evaluated and miltefosine were distributed in the plates by making a serial dilution. The final concentrations used were between 100 µM and 50 nM. Triplicates were used for each concentration. After a 3-day incubation period at 27 °C in the dark and under a 5% CO2 atmosphere, the viability of the promastigotes was assessed using the tetrazolium-dye (MTT) colorimetric method, which measures the reduction of a tetrazolium component (MTT) into an insoluble formazan product by the mitochondria of viable cells. After the incubation of the cells with the MTT reagent, a detergent solution (Triton X100, HCl) was added to lyse the cells and dissolve the colored crystals. The absorbance at 570 nm, directly proportional to the number of viable cells, was measured using an ELISA plate reader. The results were expressed as the concentrations inhibiting parasite growth by 50% (IC50) ± SD after a 3-day incubation period.
# [2] = system: L. donovani LV9 axenic amastigotes; test: L. donovani axenic amastigote assay (SYBR green I); assay type: cell-based, Leishmania donovani; conditions: for IC50: read-out: IC50 ± SD L. donovani axenic amastigotes
# Experimental: L. donovani amastigote forms were suspended to yield 10^7 cells/mL. The final compound concentrations used were 100 µM, 10 µM, 1 µM, 500 nM, and 50 nM. Duplicates were used for each concentration. Cultures were incubated at 37 °C for 72 h in the dark and under a 5% CO2 atmosphere; then, the viability of the amastigotes was assessed using the SYBR® green I (Invitrogen, France) incorporation method. Parasite growth was determined by using SYBR® Green I, a dye with marked fluorescence enhancement upon contact with parasite DNA. Parasites were lysed following Direct PCReCell Genotyping without DNA isolation protocol (Euromedex, Souffelweyersheim, France). A total of […] of SYBR Green I was added to each well, and the contents were mixed. Fluorescence was measured with Mastercylcer® ep realplex (Eppendorf, Montesson, France). The fluorescence obtained was compared to those from the range obtained with different parasite densities.
# [3] = system: L. infantum (MHOM/MA(BE)/67) amastigotes in primary peritoneal mouse macrophages; test: L. infantum intramacrophage amastigote assay (microscopic burden); assay type: cell-based, Leishmania infantum; conditions: Leishmania infantum, Macrophage, 120 h, 5 days, mouse macrophages as host
# Outline: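 Amastigotes in primary peritoneal mouse macrophages were exposed 5 days to 64, 16, 4, 1 and 0.25 μM compound. Amastigotes per macrophage counted microscopically; percent burden reduction versus untreated wells gave IC50.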
# [4] = Solubility observations (crystals in assay, insolubility in solvents); assay type: physicochemical; conditions: noted in L. donovani assay, Table S5
# [5] = system: WT LV9 L. donovani intramacrophage amastigotes; test: L. donovani intramacrophage amastigote assay; assay type: cell-based, Leishmania donovani
# [6] = system: Trypanosoma brucei brucei trypomastigotes, suramin-sensitive strain (Squib 427); test: T. b. brucei growth/viability assay (resazurin); assay type: cell-based; conditions: Trypanosoma brucei, 72 h, 3 days
# Experimental: After 3 days, parasite growth was assessed fluorimetrically following the addition of resazurin. After 24 h at 37 °C, fluorescence was measured (λex = 550 nm, λem = 590 nm). The results were expressed as a percentage reduction in parasite growth/viability compared to control wells, and a 50% inhibitory concentration (IC50) was calculated.
# [7] = system: Trypanosoma cruzi (Tulahuen CL2 β-galactosidase) amastigotes in hMRC-5SV2 cells; test: T. cruzi intracellular amastigote assay (β-galactosidase/CPRG); assay type: cell-based; conditions: Trypanosoma cruzi, TULAHUEN, 168 h, intracellular amastigotes, 7 days; read-out: IC50 T. cruzi intramacrophage amastigotes (converted)
# Outline: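 Infected hMRC-5SV2 fibroblasts exposed 7 days to compound at 64, 16, 4, 1 and 0.25 μM. Parasite burden read as β-galactosidase cleavage of CPRG at 540 nm after 4 h at 37 °C. Percent growth reduction versus control wells, IC50 calculated.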
# [8] = system: HePC-R L. donovani promastigotes; test: L. donovani promastigote assay, miltefosine-resistant strain; assay type: cell-based; conditions: Leishmania donovani, read-out: IC50 ± SD HePC-R L. donovani promastigotes
# Experimental: as §1
# [9] = system: macrophages
# [10] = in vitro; conditions: human, CC50 hMRC-5 (cytotoxicity)
# [11] = system: Trypanosoma brucei brucei trypomastigotes, suramin-sensitive strain (Squib 427); design: method as in earlier work; conditions: Table 1, preliminary study; read-out: IC50 T. b. brucei; cited from earlier work
# [12] = system: murine macrophages; test: Qualitative toxicity toward mouse macrophages; conditions: concentration at which toxicity was observed; 64, 16 and 4 µM tested
# Experimental: The cytotoxicity of compounds was evaluated toward human diploid embryonic lung fibroblast hMRC-5SV2 cells, derived from fetal lung tissue and first described in 1970. hMRC-5SV2 cells were cultured in 96-well plates with five concentrations of the compound (64, 16, 4, 1, and 0.25 μM). After 3 days of incubation, the cell viability was assessed fluorimetrically after the addition of resazurin, and fluorescence was measured (λex = 550 nm, λem = 590 nm). The results were expressed as a percentage reduction in cell growth/viability compared to control wells, and a 50% cytotoxic concentration (CC50) was calculated. The reference cytotoxic drugs were tamoxifen or ivermectin. Additionally, toxicity toward mouse macrophages was qualitatively observed. Three concentrations were included (64, 16, and 4 µM), and the range of toxicity was ranked from the least toxic to the most toxic compound.
# [13] = system: Trypanosoma cruzi (Tulahuen CL2 β-galactosidase) amastigotes in hMRC-5SV2 cells; design: method as in earlier work; conditions: Table 1, preliminary study; read-out: IC50 T. cruzi; cited from earlier work
# [14] = system: L. infantum (MHOM/MA(BE)/67) amastigotes in primary peritoneal mouse macrophages; design: method as in earlier work; conditions: Table 1, preliminary study; cited from earlier work
# [15] = Leishmania donovani, WT LV9, ± SD in Tables S5/S6, read-out: IC50 L. donovani intramacrophage amastigotes
SMILES,IC50 [1],"IC50 ([2]; Leishmania donovani, LV9)",IC50 [3],"IC50 [5, 15]",IC50 [6],IC50 [7],IC50 [8],observed macrophage death / lysis observed at [9],CC50 at 3 days [10],IC50 [11],Toxicity (T) observed toward murine macrophages [12],other results
O=C(/C=C/c1ccc(Cl)cc1)/C=C/c1ccc(Cl)cc1 [1f],6.7 ± 0.6 µM,> 200 µM,> 60 µM,6.3 ± 1.9 µM,2.1 µM,35.6 µM,3.7 ± 0.2 µM,> 50 µM,42.4 µM,–,–,presence of crystals (asterisk mark) [4]: * (presence of crystals at > 50 µM)
COc1cc(Br)c(O)c(/C=C/C(=O)/C=C/c2cc(OC)cc(Br)c2O)c1 [1p],–,–,1 µM,–,≤ 0.3 µM,≤ 0.3 µM,–,–,1 µM,≤ 0.3 µM,T1 (T1 = 64),IC50 [13]: ≤ 0.3 µM
O=C(/C=C/c1ccc(OC(F)(F)F)cc1)/C=C/c1ccc(OC(F)(F)F)cc1 [1s],–,–,> 64 µM,–,0.5 µM,1.8 µM,–,–,32.8 µM,–,–,IC50 [14]: > 64 µM
"C[C@@H]1[C@H](O)[C@@H](C)/C=C/C=C/C=C/C=C/C=C/C=C/C=C/[C@H](O[C@@H]2O[C@H](C)[C@@H](O)[C@H](N)[C@@H]2O)C[C@@H]2O[C@](O)(C[C@@H](O)C[C@@H](O)[C@H](O)CC[C@@H](O)C[C@@H](O)CC(=O)O[C@H]1C)C[C@H](O)[C@H]2C(=O)O [Amphotericin B, reference compound]",0.04 ± 0.01 µM,0.024 µM,–,0.04 µM,–,–,–,–,> 64 µM,–,–,"IC90 ([2]; Leishmania donovani, Table S6, read-out: IC90 ± SD LV9 axenic amastigotes): 0.03 µM; IC99 ± SD LV9 axenic amastigotes ([2]; Table S6): 0.039 µM; IC50 ([5]; Leishmania donovani, as worded in footnote a of Table S5, value stands in a middle column of the table, read-out: IC50 against leishmanial WT and HePC-R intramacrophagic amastigotes): 0.08 ± 0.024 µM; IC90 ([5]; Leishmania donovani, Table S6, read-out: IC90 ± SD LV9 intramacrophage amastigotes): 0.05 µM; IC99 ± SD LV9 intramacrophage amastigotes ([5]; Table S6): 0.07 µM"
O=C(/C=C/c1ccc(C(F)(F)F)cc1)/C=C/c1ccc(C(F)(F)F)cc1 [1r],–,–,> 64 µM,–,0.2 µM,1.6 µM,–,–,26.2 µM,–,–,IC50 [14]: > 64 µM
Cl.Cl.O=C(/C=C/c1ccncc1)/C=C/c1ccncc1 [1y],–,–,1 µM,–,≤ 0.3 µM,≤ 0.3 µM,–,–,1.1 µM,≤ 0.3 µM,T3 (T3 = 4),IC50 [13]: ≤ 0.3 µM
N#Cc1ccc(/C=C/C(=O)/C=C/c2ccc(C#N)cc2)cc1 [1t],6.6 ± 0.6 µM,–,5.1 µM,> 50 µM,1.5 µM,11.9 µM,2.4 ± 0.1 µM,> 100 µM,57.1 µM,–,T2 (T2 = 16),IC50 ± SD L. donovani axenic amastigotes ([2]; LV9): T at 6.25-200 µM
C=CCOc1ccc(OC)cc1/C=C/C(=O)/C=C/c1cc(OC)ccc1OCC=C [1n],–,–,> 64 µM,–,26.6 µM,24.2 µM,–,–,> 16 µM,–,–,melting point: 83 °C
Cl.Cl.O=C(/C=C/c1cccnc1)/C=C/c1cccnc1 [1x],–,–,1 µM,–,≤ 0.3 µM,0.9 µM,–,–,1.1 µM,≤ 0.3 µM,T1 (T1 = 64),–
O=C(/C=C/c1ccccc1Cl)/C=C/c1ccccc1Cl [1e],3.6 ± 0.1 µM,> 200 µM,6.8 µM,7.4 ± 1.7 µM,7.8 µM,12 µM,7.8 ± 1 µM,> 37.5 µM,29.4 µM,–,T2 (T2 = 16),–
